Test results published in patent US11098038B2, “Imidazole-based anticancer agents and derivatives thereof, and methods of making and using same” (The University of Toledo, priority 2017, dated 2021).

Columns and labels:
ACHN = assay: NCI 60 screen, ACHN; assay type: cell-based; conditions: Homo sapiens, Renal
Description: (§1) The compounds synthesized were tested at the National Cancer Institute (NCI) for anti-proliferative activity in the 60 human tumor cell line assay.

EKVX = assay: NCI 60 screen, EKVX; assay type: cell-based; conditions: Homo sapiens, Non-Small Cell Lung
Description: as §1

HT29 = assay: NCI 60 screen, HT29; assay type: cell-based; conditions: Homo sapiens, HT-29, Colon
Description: as §1

IGROV1 = assay: NCI 60 screen, IGROV1; assay type: cell-based; conditions: Homo sapiens, IGROV-1, Ovarian
Description: as §1

OVCAR-5 = assay: NCI 60 screen, OVCAR-5; assay type: cell-based; conditions: Homo sapiens, Ovarian
Description: as §1

HCC-2998 = assay: NCI 60 screen, HCC-2998; assay type: cell-based; conditions: Homo sapiens, Colon
Description: as §1

SR = assay: NCI 60 screen, SR; assay type: cell-based; conditions: Homo sapiens, Leukemia
Description: as §1

OVCAR-4 = assay: NCI 60 screen, OVCAR-4; assay type: cell-based; conditions: Homo sapiens, Ovarian
Description: as §1

786-0 = assay: NCI 60 screen, 786-0; assay type: cell-based; conditions: Homo sapiens, Renal
Description: as §1

PC-3 = assay: NCI 60 screen, PC-3; assay type: cell-based; conditions: Homo sapiens, Prostatic
Description: as §1

BT-549 = assay: NCI 60 screen, BT-549; assay type: cell-based; conditions: Homo sapiens, Breast
Description: as §1

MALME-3M = assay: NCI 60 screen, MALME-3M; assay type: cell-based; conditions: Homo sapiens, Melanoma
Description: as §1

RPMI-8226 = assay: NCI 60 screen, RPMI-8226; assay type: cell-based; conditions: Homo sapiens, Leukemia
Description: as §1

A549/ATCC = assay: NCI 60 screen, A549/ATCC; assay type: cell-based; conditions: Homo sapiens, Non-Small Cell Lung
Description: as §1

CAKI-1 = assay: NCI 60 screen, CAKI-1; assay type: cell-based; conditions: Homo sapiens, Renal
Description: as §1

SNB-75 = assay: NCI 60 screen, SNB-75; assay type: cell-based; conditions: Homo sapiens, CNS
Description: as §1

DU-145 = assay: NCI 60 screen, DU-145; assay type: cell-based; conditions: Homo sapiens, Prostatic
Description: as §1

MDA-MB-468 = assay: NCI 60 screen, MDA-MB-468; assay type: cell-based; conditions: Homo sapiens, Breast
Description: as §1

NCI-H522 = assay: NCI 60 screen, NCI-H522; assay type: cell-based; conditions: Homo sapiens, Non-Small Cell Lung
Description: as §1

SK-MEL-5 = assay: NCI 60 screen, SK-MEL-5; assay type: cell-based; conditions: Homo sapiens, Melanoma
Description: as §1

COLO 205 = assay: NCI 60 screen, COLO 205; assay type: cell-based; conditions: Homo sapiens, Colon
Description: as §1

HOP-62 = assay: NCI 60 screen, HOP-62; assay type: cell-based; conditions: Homo sapiens, Non-Small Cell Lung
Description: as §1

SNB-19 = assay: NCI 60 screen, SNB-19; assay type: cell-based; conditions: Homo sapiens, CNS
Description: as §1

SN12C = assay: NCI 60 screen, SN12C; assay type: cell-based; conditions: Homo sapiens, Renal
Description: as §1

HOP-92 = assay: NCI 60 screen, HOP-92; assay type: cell-based; conditions: Homo sapiens, Non-Small Cell Lung
Description: as §1

T-47D = assay: NCI 60 screen, T-47D; assay type: cell-based; conditions: Homo sapiens, T47D, Breast
Description: as §1

TK-10 = assay: NCI 60 screen, TK-10; assay type: cell-based; conditions: Homo sapiens, Renal
Description: as §1

U251 = assay: NCI 60 screen, U251; assay type: cell-based; conditions: Homo sapiens, U-251, CNS
Description: as §1

SK-OV-3 = assay: NCI 60 screen, SK-OV-3; assay type: cell-based; conditions: Homo sapiens, Ovarian
Description: as §1

## O=C(Cc1ccc(/C=C/C(=O)c2ncc[nH]2)cc1)Nc1ccc(C(F)(F)F)cc1 [Compound 24, (E)-2-(4-(3-(1H-imidazole-2-yl)-3-oxoprop-1-en-1-yl)phenyl)-N-(4-(trifluoromethyl)phenyl) acetamide]
ACHN
  GI50: 6.33 µM
EKVX
  GI50: 5.57 µM
HT29
  GI50: 1.09 µM
IGROV1
  GI50: 3.84 µM
OVCAR-5
  GI50: 4.89 µM
HCC-2998
  GI50: 3.97 µM
SR
  GI50: 0.843 µM
OVCAR-4
  GI50: 5.12 µM
786-0
  GI50: 1.4 µM
PC-3
  GI50: 2.81 µM
BT-549
  GI50: 2.11 µM
MALME-3M
  GI50: 5.18 µM
RPMI-8226
  GI50: 0.78 µM
A549/ATCC
  GI50: 6.37 µM
CAKI-1
  GI50: 4.43 µM
SNB-75
  GI50: 3.97 µM
DU-145
  GI50: 2.13 µM
MDA-MB-468
  GI50: 1.77 µM
NCI-H522
  GI50: 4.87 µM
other
  melting point: 240.5 °C
SK-MEL-5
  GI50: 5.55 µM
COLO 205
  GI50: 5.38 µM
HOP-62
  GI50: 4.8 µM
SNB-19
  GI50: 2.79 µM
SN12C
  GI50: 1.87 µM
HOP-92
  GI50: 4.89 µM
T-47D
  GI50: 3.97 µM
TK-10
  GI50: 6.63 µM
U251
  GI50: 1.22 µM
SK-OV-3
  GI50: 7.66 µM
